# Results taken from publication PMC11062922 (Nature Chemical Biology, 2023).
# Where “and” joins values, the source holds several entries; their conditions need not be identical. Equal values may be shown once. Read-outs that look alike come from different tables or passages of the source.
# Key:
# MAP3K5 = molecular target: T1, MAP3K5 (Homo sapiens, UniProt Q99683); assay: Kinobeads two-dose competition binding: MAP3K5; conditions: Drugmatrix - all 2, read-out: apparent Kd MAP3K5
# T1 construct: endogenous in cells
# T1 sequence (Q99683 whole entry): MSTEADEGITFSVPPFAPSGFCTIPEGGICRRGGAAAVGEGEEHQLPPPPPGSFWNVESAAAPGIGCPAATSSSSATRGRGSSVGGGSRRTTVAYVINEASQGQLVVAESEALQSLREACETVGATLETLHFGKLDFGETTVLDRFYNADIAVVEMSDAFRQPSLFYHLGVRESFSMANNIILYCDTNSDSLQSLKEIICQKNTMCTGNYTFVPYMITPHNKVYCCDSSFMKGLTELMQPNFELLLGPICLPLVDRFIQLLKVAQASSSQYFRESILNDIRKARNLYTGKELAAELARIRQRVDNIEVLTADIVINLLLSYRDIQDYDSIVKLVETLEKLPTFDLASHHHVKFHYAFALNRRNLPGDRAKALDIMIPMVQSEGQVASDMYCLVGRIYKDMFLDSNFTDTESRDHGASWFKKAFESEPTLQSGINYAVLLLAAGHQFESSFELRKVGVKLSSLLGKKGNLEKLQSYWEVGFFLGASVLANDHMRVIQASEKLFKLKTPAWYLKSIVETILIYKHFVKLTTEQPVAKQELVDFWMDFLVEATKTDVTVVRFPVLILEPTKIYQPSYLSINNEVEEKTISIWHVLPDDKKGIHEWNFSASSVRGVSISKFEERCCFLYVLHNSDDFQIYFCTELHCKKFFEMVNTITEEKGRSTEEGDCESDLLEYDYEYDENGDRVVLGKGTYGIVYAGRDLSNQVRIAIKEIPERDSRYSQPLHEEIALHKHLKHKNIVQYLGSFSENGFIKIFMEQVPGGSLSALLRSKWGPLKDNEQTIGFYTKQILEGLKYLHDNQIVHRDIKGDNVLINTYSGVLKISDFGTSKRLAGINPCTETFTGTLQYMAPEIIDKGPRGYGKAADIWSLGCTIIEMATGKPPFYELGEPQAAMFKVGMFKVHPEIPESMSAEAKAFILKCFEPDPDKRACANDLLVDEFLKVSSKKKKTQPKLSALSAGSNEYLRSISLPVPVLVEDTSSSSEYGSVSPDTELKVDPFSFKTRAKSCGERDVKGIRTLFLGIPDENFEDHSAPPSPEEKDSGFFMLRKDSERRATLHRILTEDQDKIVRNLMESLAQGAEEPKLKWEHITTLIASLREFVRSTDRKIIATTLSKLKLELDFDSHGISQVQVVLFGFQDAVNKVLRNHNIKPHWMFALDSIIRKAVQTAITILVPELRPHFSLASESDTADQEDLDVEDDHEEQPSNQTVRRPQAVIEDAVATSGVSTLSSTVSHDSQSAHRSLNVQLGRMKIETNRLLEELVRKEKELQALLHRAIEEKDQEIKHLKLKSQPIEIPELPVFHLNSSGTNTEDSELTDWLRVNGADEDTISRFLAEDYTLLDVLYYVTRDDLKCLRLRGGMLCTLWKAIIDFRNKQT
# PIK3CG = molecular target: T2, PIK3CG (Homo sapiens, UniProt P48736); assay: Kinobeads two-dose competition binding: PIK3CG; conditions: sheet "Kinobeads Drugmatrix-nanomolar2" (compounds in rows); read-out: Kinobeads Drugmatrix-nanomolar2: apparent Kd, PIK3CG
# T2 construct: endogenous in cells
# Excerpt: Supplement 41589_2023_1459_MOESM3_ESM.xlsx, sheet "Kinobeads Drugmatrix-nanomolar2" | column: PIK3CG
# CIT = molecular target: T3, CIT (Homo sapiens, UniProt O14578); assay: Kinobeads full dose-response competition binding: CIT; conditions: Gene Name CIT
# T3 construct: endogenous in cells
# T3 sequence (O14578 whole entry): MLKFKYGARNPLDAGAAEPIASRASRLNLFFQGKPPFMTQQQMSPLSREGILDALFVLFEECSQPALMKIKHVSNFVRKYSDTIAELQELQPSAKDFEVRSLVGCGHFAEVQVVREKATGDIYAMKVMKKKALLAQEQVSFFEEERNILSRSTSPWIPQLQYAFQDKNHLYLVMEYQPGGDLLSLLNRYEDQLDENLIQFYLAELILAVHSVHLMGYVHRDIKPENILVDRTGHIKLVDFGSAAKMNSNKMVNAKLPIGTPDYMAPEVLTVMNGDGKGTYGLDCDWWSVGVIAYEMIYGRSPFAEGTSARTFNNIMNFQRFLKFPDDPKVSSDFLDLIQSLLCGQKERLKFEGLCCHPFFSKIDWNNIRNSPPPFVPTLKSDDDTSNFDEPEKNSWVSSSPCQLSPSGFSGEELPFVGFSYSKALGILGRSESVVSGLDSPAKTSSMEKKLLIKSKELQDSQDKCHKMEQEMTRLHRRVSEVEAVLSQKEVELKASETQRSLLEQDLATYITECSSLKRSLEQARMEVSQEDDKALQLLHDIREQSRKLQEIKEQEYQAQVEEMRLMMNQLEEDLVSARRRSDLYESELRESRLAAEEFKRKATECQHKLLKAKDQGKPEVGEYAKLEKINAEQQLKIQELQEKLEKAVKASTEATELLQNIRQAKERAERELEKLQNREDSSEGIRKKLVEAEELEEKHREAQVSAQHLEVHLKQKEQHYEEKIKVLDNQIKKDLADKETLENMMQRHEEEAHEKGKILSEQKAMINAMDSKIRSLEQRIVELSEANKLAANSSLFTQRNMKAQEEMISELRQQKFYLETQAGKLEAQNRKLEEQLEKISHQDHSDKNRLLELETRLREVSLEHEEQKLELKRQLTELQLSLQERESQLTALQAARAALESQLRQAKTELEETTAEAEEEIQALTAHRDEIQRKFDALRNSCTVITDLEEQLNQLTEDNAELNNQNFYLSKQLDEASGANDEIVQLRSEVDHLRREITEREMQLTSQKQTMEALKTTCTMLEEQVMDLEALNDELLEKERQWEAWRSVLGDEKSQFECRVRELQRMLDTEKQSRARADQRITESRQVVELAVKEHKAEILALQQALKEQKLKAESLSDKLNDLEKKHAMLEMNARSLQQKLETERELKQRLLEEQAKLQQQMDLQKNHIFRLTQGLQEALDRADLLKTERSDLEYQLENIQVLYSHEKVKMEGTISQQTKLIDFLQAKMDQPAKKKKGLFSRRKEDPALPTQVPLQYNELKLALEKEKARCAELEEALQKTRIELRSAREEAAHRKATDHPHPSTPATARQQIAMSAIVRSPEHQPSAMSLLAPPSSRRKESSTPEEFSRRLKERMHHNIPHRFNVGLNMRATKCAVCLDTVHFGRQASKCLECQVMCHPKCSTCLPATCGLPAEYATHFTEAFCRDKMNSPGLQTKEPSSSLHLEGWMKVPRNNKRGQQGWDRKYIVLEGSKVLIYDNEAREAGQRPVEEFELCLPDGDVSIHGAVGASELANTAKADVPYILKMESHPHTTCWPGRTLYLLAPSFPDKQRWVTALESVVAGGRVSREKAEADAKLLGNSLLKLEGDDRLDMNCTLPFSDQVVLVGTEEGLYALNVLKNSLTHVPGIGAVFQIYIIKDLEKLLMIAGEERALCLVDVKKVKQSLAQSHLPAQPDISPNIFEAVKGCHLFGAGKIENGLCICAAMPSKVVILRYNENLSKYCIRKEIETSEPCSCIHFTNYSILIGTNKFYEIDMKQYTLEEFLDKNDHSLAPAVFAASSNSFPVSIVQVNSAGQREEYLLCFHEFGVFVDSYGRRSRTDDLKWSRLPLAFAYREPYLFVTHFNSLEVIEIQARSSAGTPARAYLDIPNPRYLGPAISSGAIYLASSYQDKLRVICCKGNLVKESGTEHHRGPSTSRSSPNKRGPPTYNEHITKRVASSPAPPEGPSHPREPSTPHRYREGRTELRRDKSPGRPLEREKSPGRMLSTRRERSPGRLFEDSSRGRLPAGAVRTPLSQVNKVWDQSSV
# EPHA5 = molecular target: T4, EPHA5 (Homo sapiens, UniProt P54756); assay: Kinobeads two-dose competition binding: EPHA5; conditions: read-out: Lestaurtinib Drugmatrix value, Gene Name EPHA5
# T4 construct: endogenous in cells
# GSK3A = molecular target: T5, GSK3A (Homo sapiens, UniProt P49840); assay: Kinobeads two-dose competition binding: GSK3A; conditions: read-out: Lestaurtinib Drugmatrix value, Gene Name GSK3A
# T5 construct: endogenous in cells
# T5 sequence (P49840 whole entry): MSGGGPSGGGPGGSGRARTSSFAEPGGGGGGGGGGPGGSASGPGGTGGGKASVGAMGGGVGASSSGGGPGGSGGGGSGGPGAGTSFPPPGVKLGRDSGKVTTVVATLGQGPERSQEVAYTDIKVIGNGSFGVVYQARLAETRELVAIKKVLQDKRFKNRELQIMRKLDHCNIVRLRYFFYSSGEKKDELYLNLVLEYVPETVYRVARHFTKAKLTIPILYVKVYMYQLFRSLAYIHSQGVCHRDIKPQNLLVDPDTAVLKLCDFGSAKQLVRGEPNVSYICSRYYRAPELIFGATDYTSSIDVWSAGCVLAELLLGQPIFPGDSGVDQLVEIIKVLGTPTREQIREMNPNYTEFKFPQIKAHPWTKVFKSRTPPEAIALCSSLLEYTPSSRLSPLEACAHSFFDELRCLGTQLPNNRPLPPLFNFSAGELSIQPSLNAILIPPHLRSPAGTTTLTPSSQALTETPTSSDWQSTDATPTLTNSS
# PAK6 = molecular target: T6, PAK6 (Homo sapiens, UniProt Q9NQU5); assay: Kinobeads competition binding, Lestaurtinib control replicates: PAK6; conditions: read-out: Lestaurtinib Drugmatrix value; Gene Name PAK6; one column per experiment number and replicate (R1-R3)
# T6 construct: a mixture of lysates from five cancer cell lines; endogenous in cells
# PIM3 = molecular target: T7, PIM3 (Homo sapiens, UniProt Q86V86); assay: Kinobeads competition binding, Lestaurtinib control replicates: PIM3
# T7 construct: a mixture of lysates from five cancer cell lines; endogenous in cells
# PIK3CA = molecular target: T8, PIK3CA (Homo sapiens, UniProt P42336); assay: Kinobeads competition binding, Lestaurtinib control replicates: PIK3CA; conditions: read-out: Lestaurtinib Drugmatrix value; Gene Name PIK3CA; one column per experiment number and replicate (R1-R3)
# T8 construct: a mixture of lysates from five cancer cell lines; endogenous in cells
# PHKG2 = molecular target: T9, PHKG2 (Homo sapiens, UniProt P15735); assay: Kinobeads competition binding, Lestaurtinib control replicates: PHKG2; conditions: read-out: Lestaurtinib Drugmatrix value; Gene Name PHKG2; one column per experiment number and replicate (R1-R3)
# T9 construct: a mixture of lysates from five cancer cell lines; endogenous in cells
# T9 sequence (P15735 1-406): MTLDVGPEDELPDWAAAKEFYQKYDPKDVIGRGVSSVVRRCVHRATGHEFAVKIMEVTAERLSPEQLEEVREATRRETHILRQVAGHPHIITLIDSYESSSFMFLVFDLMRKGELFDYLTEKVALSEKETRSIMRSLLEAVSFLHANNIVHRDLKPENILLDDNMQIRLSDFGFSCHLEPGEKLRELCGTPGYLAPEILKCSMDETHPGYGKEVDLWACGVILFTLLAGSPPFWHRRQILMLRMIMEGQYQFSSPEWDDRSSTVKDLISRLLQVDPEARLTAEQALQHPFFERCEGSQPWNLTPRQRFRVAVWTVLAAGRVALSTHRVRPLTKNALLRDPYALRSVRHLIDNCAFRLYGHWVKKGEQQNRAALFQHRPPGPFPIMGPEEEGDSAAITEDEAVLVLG
# BMPR1B = molecular target: T10, BMPR1B (Homo sapiens, UniProt O00238); assay: Kinobeads two-dose competition binding: BMPR1B; conditions: read-out: Lestaurtinib Drugmatrix value, Gene Name BMPR1B
# T10 construct: endogenous in cells
# RIPK3 = molecular target: T11, RIPK3 (Homo sapiens, UniProt Q9Y572); assay: Kinobeads full dose-response competition binding: RIPK3; conditions: Gene Name RIPK3
# T11 construct: endogenous in cells
# T11 sequence (Q9Y572 whole entry): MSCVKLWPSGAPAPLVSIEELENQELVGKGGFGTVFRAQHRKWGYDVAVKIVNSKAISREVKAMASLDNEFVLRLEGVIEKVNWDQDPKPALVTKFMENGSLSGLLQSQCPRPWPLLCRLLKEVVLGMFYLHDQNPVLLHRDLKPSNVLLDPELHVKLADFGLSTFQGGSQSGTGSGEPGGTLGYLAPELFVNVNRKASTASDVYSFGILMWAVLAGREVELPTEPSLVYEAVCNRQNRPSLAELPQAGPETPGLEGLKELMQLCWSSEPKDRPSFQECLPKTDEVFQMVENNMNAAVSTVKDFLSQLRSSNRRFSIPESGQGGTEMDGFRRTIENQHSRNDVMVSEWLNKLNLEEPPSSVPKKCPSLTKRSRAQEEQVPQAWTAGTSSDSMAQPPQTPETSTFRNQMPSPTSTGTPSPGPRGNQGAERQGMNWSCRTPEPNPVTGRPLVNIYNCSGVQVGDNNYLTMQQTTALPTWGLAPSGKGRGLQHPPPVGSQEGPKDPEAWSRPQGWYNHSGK
# MAPK14 = molecular target: T12, MAPK14 (Homo sapiens, UniProt Q16539); assay: Kinobeads full dose-response competition binding: MAPK14; conditions: Gene Name MAPK14
# T12 construct: endogenous in cells
# T12 sequence (Q16539 whole entry): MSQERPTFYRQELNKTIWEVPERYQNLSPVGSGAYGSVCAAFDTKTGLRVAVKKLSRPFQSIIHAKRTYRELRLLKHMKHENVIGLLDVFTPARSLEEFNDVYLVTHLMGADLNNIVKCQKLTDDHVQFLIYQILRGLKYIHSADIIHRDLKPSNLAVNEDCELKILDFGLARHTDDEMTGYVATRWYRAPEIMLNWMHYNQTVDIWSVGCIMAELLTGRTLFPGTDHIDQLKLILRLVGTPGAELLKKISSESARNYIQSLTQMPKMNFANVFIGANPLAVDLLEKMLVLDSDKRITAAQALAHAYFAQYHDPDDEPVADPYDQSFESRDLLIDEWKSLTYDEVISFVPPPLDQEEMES
# [1] = EC50 with Correction, doses in nM, read-out: apparent Kd
# [2] = eight-dose curve fit, doses in nM
smiles,measurement,setting,value
CC(C)N1CC(=O)N(C)c2cnc(Nc3cccc(S(=O)(=O)CCN4CCOCC4)c3)nc21 [BI00009348],potency estimated from few doses,MAP3K5,> 1000 nM
same,potency estimated from few doses,PIK3CG,109 nM
CCn1c(-c2nonc2N)nc2c(C#CC(C)(C)O)nc(OCCN)cc21 [GSK902056A],Relative Intensity 0.3nM,"CIT; 0.3nM compound, DMSO = 1",1.0296
same,Relative Intensity 1nM,"CIT; 1nM compound, DMSO = 1",1.0023
same,Relative Intensity 3nM,"CIT; 3nM compound, DMSO = 1",1.019
same,Relative Intensity 10nM,"CIT; 10nM compound, DMSO = 1",1.082
same,Relative Intensity 30nM,"CIT; 30nM compound, DMSO = 1",1.01
same,Relative Intensity 100nM,"CIT; 100nM compound, DMSO = 1",0.9604
same,Relative Intensity 300nM,"CIT; 300nM compound, DMSO = 1",0.7575
same,Relative Intensity 1000nM,"CIT; 1000nM compound, DMSO = 1",0.5648
same,Kd,CIT; [1],279 nM
same,EC50,CIT; [2],279 nM
C[C@]12O[C@H](C[C@]1(O)CO)n1c3ccccc3c3c4c(c5c6ccccc6n2c5c31)CNC4=O [Lestaurtinib],potency estimated from few doses,EPHA5,255 nM
same,potency estimated from few doses,GSK3A,175 nM
same,potency estimated from few doses,PAK6,151 nM
same,potency estimated from few doses,"PIM3; read-out: Lestaurtinib Drugmatrix value, PIM3, Gene Name PIM3; one column per experiment number and replicate (R1-R3)",611 nM
same,potency estimated from few doses,"PIM3; read-out: Lestaurtinib Drugmatrix value, PIM3; Gene Name PIM3; one column per experiment number and replicate (R1-R3)",656 nM and 795 nM
same,potency estimated from few doses,PIK3CA,156 nM
same,potency estimated from few doses,PHKG2,321 nM
same,potency estimated from few doses,BMPR1B,737 nM
NCc1ccc(-c2nc(-c3ccncc3)c(-c3ccc(Cl)c(O)c3)[nH]2)cc1 [SB-476429-A],Relative Intensity 0.3nM,"RIPK3; 0.3nM compound, DMSO = 1",1.0435
same,Relative Intensity 1nM,"RIPK3; 1nM compound, DMSO = 1",1.078
same,Relative Intensity 3nM,"RIPK3; 3nM compound, DMSO = 1",1.023
same,Relative Intensity 10nM,"RIPK3; 10nM compound, DMSO = 1",0.8405
same,Relative Intensity 30nM,"RIPK3; 30nM compound, DMSO = 1",0.9631
same,Relative Intensity 100nM,"RIPK3; 100nM compound, DMSO = 1",1.023
same,Relative Intensity 300nM,"RIPK3; 300nM compound, DMSO = 1",0.7216
same,Relative Intensity 1000nM,"RIPK3; 1000nM compound, DMSO = 1",0.4701
same,Kd,RIPK3; [1],289 nM
same,EC50,RIPK3; [2],296 nM
same,Relative Intensity 0.3nM,"MAPK14; 0.3nM compound, DMSO = 1",1.121
same,Relative Intensity 1nM,"MAPK14; 1nM compound, DMSO = 1",0.9468
same,Relative Intensity 3nM,"MAPK14; 3nM compound, DMSO = 1",1.026
same,Relative Intensity 10nM,"MAPK14; 10nM compound, DMSO = 1",0.8638
same,Relative Intensity 30nM,"MAPK14; 30nM compound, DMSO = 1",0.6876
same,Relative Intensity 100nM,"MAPK14; 100nM compound, DMSO = 1",0.6751
same,Relative Intensity 300nM,"MAPK14; 300nM compound, DMSO = 1",0.325
same,Relative Intensity 1000nM,"MAPK14; 1000nM compound, DMSO = 1",0.2
same,Kd,MAPK14; [1],174 nM
same,EC50,MAPK14; [2],174 nM
